For four compounds, IC50, AUC(0-t) and Cmax results are on record in ChEMBL document CHEMBL5154866 (J Med Chem, 2022).

For series [1], the target named is High affinity nerve growth factor receptor (Homo sapiens, UniProt P04629). Description: Inhibition of N-terminal hexahistidine tagged TRKA (485 to 795 residues) (unknown origin) expressed in Sf9 cells using Ser/Thr 06 peptide as substrate incubated for 1 hr in presence of 400 uM ATP by FRET based Z'-Lyte assay.
Series [2] has as its target High affinity nerve growth factor receptor (Homo sapiens, UniProt P04629, G667C). The series can be described thus: Inhibition of TRKA G667C mutant (unknown origin) using Ser/Thr 06 peptide as substrate incubated for 1 hr in presence of 400 uM ATP by FRET based Z'-Lyte assay.
Series [3] concerns the target High affinity nerve growth factor receptor (Homo sapiens, UniProt P04629, G595R). Description: Inhibition of TRKA G595R mutant (unknown origin) by HTRF assay. Background: In TR-FRET formats the signal depends on donor and acceptor labels being close together.
Series [4] has as its system BaF3. Description: Antiproliferative activity against mouse BaF3 cells expressing CD74 fused TRKA assessed as cell growth inhibition incubated for 3 days by CCK8 assay. The note with it: BaF3, 72 h.
Series [5] deals with BaF3. The series can be described thus: Antiproliferative activity against mouse BaF3 cells expressing ETV6 fused TRKC assessed as cell growth inhibition incubated for 3 days by CCK8 assay. The note with it: BaF3, 72 h.
Series [6] has as its system BaF3. The series can be described thus: cells. The note with it: Mus musculus, BaF3, 72 h.
For series [7], the system named is BaF3. The series can be described thus: cells. The conditions noted are these: Mus musculus, BaF3, 72 h. This is another data set of the same source.
Series [8] addresses Epithelial discoidin domain-containing receptor 1 (Homo sapiens, UniProt Q08345). The series can be described thus: Inhibition of human wild type partial length DDR1(R565 to V876 residue) expressed in bacterial expression system by Kinomescan method.
Series [9] concerns the target T1, Discoidin domain-containing receptor 2 (Homo sapiens, UniProt Q16832).
T1 sequence (Q16832 whole entry): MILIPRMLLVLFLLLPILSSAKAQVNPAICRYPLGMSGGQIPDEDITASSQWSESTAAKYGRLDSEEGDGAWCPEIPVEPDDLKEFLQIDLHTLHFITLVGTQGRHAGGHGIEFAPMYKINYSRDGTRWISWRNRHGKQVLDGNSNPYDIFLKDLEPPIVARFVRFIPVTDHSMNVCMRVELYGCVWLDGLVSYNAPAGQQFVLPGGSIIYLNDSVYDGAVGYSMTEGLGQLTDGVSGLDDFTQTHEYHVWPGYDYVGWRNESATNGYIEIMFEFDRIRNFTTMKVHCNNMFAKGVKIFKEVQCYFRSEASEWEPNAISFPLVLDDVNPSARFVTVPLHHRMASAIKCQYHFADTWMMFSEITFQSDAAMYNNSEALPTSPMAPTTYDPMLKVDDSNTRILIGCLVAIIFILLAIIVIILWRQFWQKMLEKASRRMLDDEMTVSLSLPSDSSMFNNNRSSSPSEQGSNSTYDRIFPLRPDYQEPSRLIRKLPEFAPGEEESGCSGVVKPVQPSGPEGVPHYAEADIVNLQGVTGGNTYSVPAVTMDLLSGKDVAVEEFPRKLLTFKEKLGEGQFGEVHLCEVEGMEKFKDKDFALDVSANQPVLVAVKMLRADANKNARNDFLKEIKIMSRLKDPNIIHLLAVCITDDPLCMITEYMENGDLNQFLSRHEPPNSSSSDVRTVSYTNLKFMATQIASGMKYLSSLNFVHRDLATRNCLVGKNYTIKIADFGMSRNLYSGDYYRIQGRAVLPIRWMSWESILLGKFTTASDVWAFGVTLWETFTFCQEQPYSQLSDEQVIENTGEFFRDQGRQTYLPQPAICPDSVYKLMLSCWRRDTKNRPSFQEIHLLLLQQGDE
The series can be described thus: Inhibition of human wild type partial length DDR2 (V555 to E855 residues) expressed in mammalian expression system by Kinomescan method.

The target in the next series is Ephrin type-A receptor 7 (Homo sapiens, UniProt Q15375). The series can be described thus: Inhibition of human wild type partial length EphA7 (Y608 to S912 residues) expressed in bacterial expression system by Kinomescan method.
For a further series, the target named is Angiopoietin-1 receptor (Homo sapiens, UniProt Q02763). The series can be described thus: Inhibition human wild type partial length Tie2 (N804 to T1112 residues) expressed in bacterial expression system by Kinomescan method.
Series [10] in a line: AUC (0 to t) in Sprague-Dawley rat at 10 mg/kg, po measured upto 24 hrs by LC-MS/MS analysis. In kind it is ADME, organism-based. The note with it: in vivo. Also noted: time < 24 hrs, dose 10 mg/kg, route po.
Series [11] is described as follows: Cmax in Sprague-Dawley rat at 10 mg/kg, po measured upto 24 hrs by LC-MS/MS analysis. It is filed as ADME, organism-based. Set-up: dose 10 mg/kg, time < 24 hrs, route po. The conditions noted are these: in vivo.
Series [12] concerns BaF3. The series can be described thus: Antiproliferative activity against mouse BaF3 cells expressing ETV6 fused TRKC G623E mutant incubated for 3 days by CCK8 assay. The note with it: BaF3, 72 h.
Series [13] deals with BaF3. The series can be described thus: Antiproliferative activity against mouse BaF3 cells expressing CD74 fused TRKA G667A mutant incubated for 3 days by CCK8 assay. The conditions noted are these: BaF3, 72 h.
Series [14] concerns BaF3. The series can be described thus: Antiproliferative activity against mouse BaF3 cells expressing CD74 fused TRKA G667S mutant incubated for 3 days by CCK8 assay. The note with it: BaF3, 72 h. On the technique in general: Formazan colour is commonly taken as a measure of viable cells.
Series [15] concerns BaF3. The series can be described thus: Antiproliferative activity against mouse BaF3 cells expressing ETV6 fused TRKC G696C mutant incubated for 3 days by CCK8 assay. The note with it: BaF3, 72 h.
For series [16], the system named is BaF3. The series can be described thus: Antiproliferative activity against mouse BaF3 cells expressing ETV6 fused TRKC G696A mutant incubated for 3 days by CCK8 assay. The conditions noted are these: BaF3, 72 h.
The test system of series [17] is BaF3. The series can be described thus: Antiproliferative activity against mouse BaF3 cells expressing ETV6 fused TRKC G623R mutant incubated for 3 days by CCK8 assay. The note with it: BaF3, 72 h.
Series [18] concerns BaF3. Description: Antiproliferative activity against mouse BaF3 cells expressing ETV6 fused TRKC V573M mutant incubated for 3 days by CCK8 assay. The note with it: BaF3, 72 h.
The subject of series [19] is BaF3. The series can be described thus: Antiproliferative activity against mouse BaF3 cells expressing ETV6 fused TRKC G696S mutant incubated for 3 days by CCK8 assay. The conditions noted are these: BaF3, 72 h.
Series [20] can be described thus: Antiproliferative activity against human KM12-Luc cells assessed as inhibition of cell growth incubated for 3 days by CCK8 assay. It is filed as functional, cell-based. The note with it: 72 h.
For series [21], the system named is BaF3. The series can be described thus: Antiproliferative activity against mouse BaF3 cells assessed as inhibition of cell growth incubated for 3 days by CCK8 assay. It is filed as functional, cell-based. The note with it: BaF3, 72 h.

Bounds are passed on as bounds.

Sequence of Epithelial discoidin domain-containing receptor 1 (Q08345 whole entry, the tested form may be a part): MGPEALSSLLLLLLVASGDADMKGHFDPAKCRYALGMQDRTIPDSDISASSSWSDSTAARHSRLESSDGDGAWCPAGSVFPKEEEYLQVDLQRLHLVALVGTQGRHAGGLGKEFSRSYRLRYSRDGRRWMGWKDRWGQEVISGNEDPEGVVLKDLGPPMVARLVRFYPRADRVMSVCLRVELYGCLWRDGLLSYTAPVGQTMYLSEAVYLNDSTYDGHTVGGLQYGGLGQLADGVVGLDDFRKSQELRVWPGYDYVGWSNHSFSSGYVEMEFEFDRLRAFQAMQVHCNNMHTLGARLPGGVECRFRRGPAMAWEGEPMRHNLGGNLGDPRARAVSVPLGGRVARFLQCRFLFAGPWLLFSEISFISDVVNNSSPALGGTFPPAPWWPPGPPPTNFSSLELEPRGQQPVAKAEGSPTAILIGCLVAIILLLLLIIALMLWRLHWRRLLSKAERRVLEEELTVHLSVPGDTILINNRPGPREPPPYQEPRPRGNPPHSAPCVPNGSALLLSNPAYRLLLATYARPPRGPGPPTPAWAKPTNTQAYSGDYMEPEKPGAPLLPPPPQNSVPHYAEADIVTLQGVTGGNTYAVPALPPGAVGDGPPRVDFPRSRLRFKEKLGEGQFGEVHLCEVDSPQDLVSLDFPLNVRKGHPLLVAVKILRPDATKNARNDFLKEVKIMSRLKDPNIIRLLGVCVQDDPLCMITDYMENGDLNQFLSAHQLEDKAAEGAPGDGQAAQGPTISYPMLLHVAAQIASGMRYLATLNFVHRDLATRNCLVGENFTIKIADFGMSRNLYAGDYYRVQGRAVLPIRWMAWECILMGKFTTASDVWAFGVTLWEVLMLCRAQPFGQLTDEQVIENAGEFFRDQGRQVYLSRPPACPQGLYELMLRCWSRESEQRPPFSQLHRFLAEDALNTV
Sequence of Ephrin type-A receptor 7 (Q15375 whole entry, the tested form may be a part): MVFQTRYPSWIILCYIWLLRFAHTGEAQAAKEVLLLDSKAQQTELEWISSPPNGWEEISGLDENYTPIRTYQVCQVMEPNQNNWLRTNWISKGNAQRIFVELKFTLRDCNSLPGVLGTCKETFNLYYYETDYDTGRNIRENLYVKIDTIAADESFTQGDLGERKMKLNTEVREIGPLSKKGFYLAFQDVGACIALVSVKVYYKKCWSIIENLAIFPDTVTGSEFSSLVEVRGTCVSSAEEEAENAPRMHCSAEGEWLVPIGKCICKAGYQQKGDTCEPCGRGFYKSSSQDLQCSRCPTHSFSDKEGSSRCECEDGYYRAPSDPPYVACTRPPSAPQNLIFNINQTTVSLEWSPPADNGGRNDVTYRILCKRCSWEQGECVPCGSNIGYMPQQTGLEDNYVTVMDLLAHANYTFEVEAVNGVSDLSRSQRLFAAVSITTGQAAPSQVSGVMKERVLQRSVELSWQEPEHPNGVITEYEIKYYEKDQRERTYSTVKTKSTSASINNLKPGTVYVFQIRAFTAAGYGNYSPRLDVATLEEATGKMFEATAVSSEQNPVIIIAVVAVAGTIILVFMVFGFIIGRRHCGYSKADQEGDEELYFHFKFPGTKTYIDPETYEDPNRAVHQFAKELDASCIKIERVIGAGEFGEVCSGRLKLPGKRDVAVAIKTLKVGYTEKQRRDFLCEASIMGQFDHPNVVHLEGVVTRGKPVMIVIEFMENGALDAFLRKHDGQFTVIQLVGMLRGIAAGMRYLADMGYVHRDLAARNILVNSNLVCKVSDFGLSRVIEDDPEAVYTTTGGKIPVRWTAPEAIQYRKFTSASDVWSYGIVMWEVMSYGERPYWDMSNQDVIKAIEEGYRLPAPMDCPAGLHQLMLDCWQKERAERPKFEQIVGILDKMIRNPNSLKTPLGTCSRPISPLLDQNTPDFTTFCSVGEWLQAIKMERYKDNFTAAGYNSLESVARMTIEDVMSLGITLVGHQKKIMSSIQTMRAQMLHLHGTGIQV
Sequence of Angiopoietin-1 receptor (Q02763 whole entry, the tested form may be a part): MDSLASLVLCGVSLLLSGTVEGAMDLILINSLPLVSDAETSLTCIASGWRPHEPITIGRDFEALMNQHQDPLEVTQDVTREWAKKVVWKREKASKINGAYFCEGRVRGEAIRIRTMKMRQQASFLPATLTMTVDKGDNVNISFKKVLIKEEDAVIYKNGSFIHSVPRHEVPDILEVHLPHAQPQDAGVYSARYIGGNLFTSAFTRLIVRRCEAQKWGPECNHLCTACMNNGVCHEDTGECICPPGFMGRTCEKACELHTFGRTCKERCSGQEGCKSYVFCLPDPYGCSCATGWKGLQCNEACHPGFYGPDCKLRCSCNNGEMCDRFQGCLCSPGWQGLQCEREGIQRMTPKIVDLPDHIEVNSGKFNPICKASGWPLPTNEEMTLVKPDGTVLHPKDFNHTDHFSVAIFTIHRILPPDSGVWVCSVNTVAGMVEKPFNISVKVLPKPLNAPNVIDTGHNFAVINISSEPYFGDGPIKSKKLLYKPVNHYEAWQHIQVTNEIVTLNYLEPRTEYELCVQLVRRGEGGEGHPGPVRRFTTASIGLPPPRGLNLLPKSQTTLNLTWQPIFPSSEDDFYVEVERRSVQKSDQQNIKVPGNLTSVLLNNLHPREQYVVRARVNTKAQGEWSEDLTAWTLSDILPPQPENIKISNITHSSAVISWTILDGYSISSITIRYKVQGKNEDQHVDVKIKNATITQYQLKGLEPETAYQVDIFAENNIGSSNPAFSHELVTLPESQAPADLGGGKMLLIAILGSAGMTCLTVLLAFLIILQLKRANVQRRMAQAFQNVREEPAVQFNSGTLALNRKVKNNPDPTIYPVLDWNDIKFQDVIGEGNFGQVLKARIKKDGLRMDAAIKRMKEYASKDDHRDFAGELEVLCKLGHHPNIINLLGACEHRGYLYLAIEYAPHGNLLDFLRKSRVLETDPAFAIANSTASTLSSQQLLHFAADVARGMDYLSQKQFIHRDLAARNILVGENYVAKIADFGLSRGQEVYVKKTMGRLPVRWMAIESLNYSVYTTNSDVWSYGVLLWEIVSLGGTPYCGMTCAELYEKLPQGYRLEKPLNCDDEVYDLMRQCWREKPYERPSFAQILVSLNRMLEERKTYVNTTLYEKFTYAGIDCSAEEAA
Sequence of High affinity nerve growth factor receptor (Homo sapiens, UniProt P04629, G667C) (P04629 33-796 G667C limits assumed): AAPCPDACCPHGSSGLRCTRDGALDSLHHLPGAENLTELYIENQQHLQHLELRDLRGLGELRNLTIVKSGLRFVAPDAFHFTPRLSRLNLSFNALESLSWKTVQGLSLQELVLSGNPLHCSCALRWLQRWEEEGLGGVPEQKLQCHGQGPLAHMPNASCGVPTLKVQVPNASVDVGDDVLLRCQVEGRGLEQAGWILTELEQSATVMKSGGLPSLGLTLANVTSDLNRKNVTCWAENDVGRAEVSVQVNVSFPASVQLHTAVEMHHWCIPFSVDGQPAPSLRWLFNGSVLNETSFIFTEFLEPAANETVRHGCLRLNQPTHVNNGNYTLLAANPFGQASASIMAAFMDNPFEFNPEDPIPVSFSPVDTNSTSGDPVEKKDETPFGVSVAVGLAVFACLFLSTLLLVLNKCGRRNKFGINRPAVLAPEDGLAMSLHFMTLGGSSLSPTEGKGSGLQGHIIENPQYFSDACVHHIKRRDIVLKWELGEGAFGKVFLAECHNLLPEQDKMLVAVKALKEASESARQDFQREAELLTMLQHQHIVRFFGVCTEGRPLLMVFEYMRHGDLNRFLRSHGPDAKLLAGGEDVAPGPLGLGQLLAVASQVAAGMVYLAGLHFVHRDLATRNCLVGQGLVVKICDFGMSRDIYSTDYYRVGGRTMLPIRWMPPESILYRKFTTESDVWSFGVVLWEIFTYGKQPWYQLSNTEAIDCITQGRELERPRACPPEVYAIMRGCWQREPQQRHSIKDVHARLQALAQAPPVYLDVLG
Sequence of High affinity nerve growth factor receptor (Homo sapiens, UniProt P04629, G595R) (P04629 33-796 G595R limits assumed): as the sequence (P04629 33-796 G667C limits assumed) above, with G563R, C635G counted along it
Sequence of High affinity nerve growth factor receptor (Homo sapiens, UniProt P04629) (P04629 whole entry, the tested form may be a part): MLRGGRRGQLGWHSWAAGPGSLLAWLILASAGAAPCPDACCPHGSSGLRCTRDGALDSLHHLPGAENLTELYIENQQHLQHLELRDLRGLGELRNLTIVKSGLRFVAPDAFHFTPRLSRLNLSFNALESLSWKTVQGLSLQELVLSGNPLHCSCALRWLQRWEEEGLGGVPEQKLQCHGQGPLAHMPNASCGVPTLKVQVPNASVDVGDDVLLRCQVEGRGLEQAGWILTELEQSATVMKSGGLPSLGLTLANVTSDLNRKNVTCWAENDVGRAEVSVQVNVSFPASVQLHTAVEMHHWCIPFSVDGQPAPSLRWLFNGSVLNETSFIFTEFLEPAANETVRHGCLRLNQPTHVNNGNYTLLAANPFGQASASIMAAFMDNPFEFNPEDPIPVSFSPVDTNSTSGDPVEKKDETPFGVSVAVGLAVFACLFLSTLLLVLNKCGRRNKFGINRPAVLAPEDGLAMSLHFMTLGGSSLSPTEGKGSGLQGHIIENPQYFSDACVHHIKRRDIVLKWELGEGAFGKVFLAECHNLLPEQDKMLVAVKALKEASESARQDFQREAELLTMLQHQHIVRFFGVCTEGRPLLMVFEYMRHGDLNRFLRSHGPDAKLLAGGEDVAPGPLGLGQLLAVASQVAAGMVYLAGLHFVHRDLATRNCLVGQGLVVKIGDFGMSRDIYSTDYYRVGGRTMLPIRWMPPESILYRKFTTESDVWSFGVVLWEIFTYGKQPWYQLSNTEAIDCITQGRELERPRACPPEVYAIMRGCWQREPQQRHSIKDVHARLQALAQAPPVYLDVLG

Broadly, the IC50 is the midpoint of a concentration-inhibition curve. As to `Cc1c2cc(cc1C(=O)Nc1cc(CN3CCN(C)CC3)cc(C(F)(F)F)c1)OCCCCC(=O)NCCN(C)c1ccc3ncc(n3n1)C#C2`, the IC50 in series [1] was 7.8 nM; in series [2], 2.7 nM; in series [3], 80.6 nM; in the series on BaF3 [4] it was 140 nM; in the series with BaF3 [5], 180 nM; with BaF3 [6] it was 35 nM. In addition, half-maximal inhibition in the series on BaF3 [7] (IC50) was put at 520 nM.

The AUC(0-t) is the area under the concentration-time curve up to a stated or last time point. Read a low AUC(0-t) as low exposure. The Cmax is the maximum level reached in the sampled fluid or tissue. For `Cc1cn(-c2cc(NC(=O)c3cc4cc(c3C)C#Cc3cnc5ccc(nn35)N(C)CCNC(=O)CCCCO4)cc(C(F)(F)F)c2)cn1`, the IC50 was determined as 26.4 nM in [8], 313 nM in [9], 162 nM on Ephrin type-A receptor 7 and 217 nM at Angiopoietin-1 receptor. The compound also gave an AUC(0-t) at 24 h in [10] of 51.6 ng·h/mL. For the same compound, in [11], the Cmax was 19.1 ng/mL.

As for `O=C(Nc1cnn2ccc(N3CCC[C@@H]3c3cc(F)ccc3F)nc12)N1CC[C@H](O)C1` [LAROTRECTINIB], the IC50 was found to be 96 nM in the series on BaF3 [12]; 9 nM with BaF3 [4]; 7 nM in the series on BaF3 [5]; 10.1 nM with BaF3 [13]; 38.2 nM in the series on BaF3 [14]; 332 nM in the series with BaF3 [15]. Also, the IC50 is 14.8 nM in the series with BaF3 [16]; > 1000 nM with BaF3 [17]; 173 nM with BaF3 [18]; 110 nM in the series with BaF3 [6]; 1550 nM in the series with BaF3 [7].

On to `C[C@@H]1CCc2ncc(F)cc2[C@H]2CCCN2c2ccn3ncc(c3n2)C(=O)N1` [SELITRECTINIB], for which the IC50 in the series on BaF3 [12] worked out at 5.7 nM; with BaF3 [13], 3.2 nM; with BaF3 [14] it was 10.5 nM; in the series with BaF3 [15], 28.2 nM; with BaF3 [16], 2.4 nM; with BaF3 [19] it was 8.2 nM. The IC50 is 8.5 nM in the series on BaF3 [17]; 10.7 nM in the series with BaF3 [18]; 2.3 nM in series [20]; > 10000 nM in the series with BaF3 [21]; 41 nM in the series on BaF3 [6].
